According to PMC12455572, “Amphipathic Proline-Rich Cell Penetrating Peptides for Targeting Mitochondria” (ACS Chemical Biology, 2025):
“Also recorded” adds a separate entry of the source. Where a SMILES comes first, the peptide text is derived from it. [ ]: non-standard residue; d: D form. The star is where a group is joined. 5FAM = O=C1OC2(c3ccc(O)cc3Oc3cc(O)ccc32)c2ccc(C(=O)*)cc21; Pro(cis-4-guanidino) = NC(N)=N[C@@H]1CN[C@H](C(=O)O)C1; Cha = N[C@@H](CC1CCCCC1)C(=O)O; Ahx = NCCCCCC(=O)O

Assays:
[1] = system: MCF-7 cells; assay: Confocal microscopy of live cells: cellular uptake and intracellular localization; format: cell-based; settings: live MCF-7 cells; for Cellular uptake and intracellular localization (confocal microscopy): 1 h, 37 °C, DMEM + 1% FBS; for Intracellular localization after 24 h rest (confocal microscopy, Figure S7): 1 h incubation at 37 °C, washing, 24 h rest in DMEM + 10 % FBS, concentration not given
Protocol: MitoTracker Deep Red was used as a counter stain for mitochondria and Hoechst 33342 for the nucleus. […] To explore whether PPII-helicity is key for mitochondrial localization, we prepared peptide CF-Ahx-(ChaRR)3-NH2 with Arg instead of Gup residues. This control peptide features a flexible conformation as judged by CD spectroscopy (Figure S1B). […] These findings show the importance of the secondary structure of the CPP for subcellular organelle localization.
(§1) MCF-7 cells were seeded in a 8-μwell Ibidi plate at 25′000 cells/well in DMEM (100 μL, 10% FCS) and allowed to adhere overnight. The medium was removed, the cells were washed with PBS (200 μL, 1x) and incubated with the peptide solution at 20 μM, 10 μM, 5 μM or 2.5 μM in DMEM (200 μL, 1% FCS) for 1 h at 37 °C. The medium was removed, and the cells were washed with PBS (200 μL, 2x). MitoTracker Deep Red was distributed at 20 nM in DMEM (200 μL, 1% FBS) and the cells were incubated at 37 °C for 25 min. The medium was removed, and the cells were washed with PBS (200 μL, 2x). Hoechst333342 was distributed at 2 μM in DMEM (200 μL, 1% FBS) and the cells were incubated at 37 °C for 5 min. The cells were washed with PBS (200 μL, 2x), and FluoroBrite medium (200 μL) was added. The live cells were monitored on the confocal microscope at 37 °C, 5% CO2.
(§2) For the cells subjected to a 24 h rest period, the FluoroBrite medium was exchanged for DMEM (200 μL, 10% FBS) after the initial imaging, and the cells were kept in this medium for 24 h. The culture medium was then exchanged for FluoroBrite DMEM, and the cells were imaged again.
(§3) Fluorescence images of cells were collected using a Nikon Eclipse T1 (inverse) microscope equipped with a Yokogawa Confocal Scanner Unit CSU-W1-T2, containing a spinning disk (50 µm). The microscope is equipped with two EMCCD Andor iXon Ultra cameras. Emission in the blue channel (405 nm) was filtered with a 450/50 bandpass filter, emission in the green channel (488 nm) was filtered with a 525/50 bandpass, and the emission in the red channel (641 nm) was filtered with a 708/75 bandpass filter. Fluorescence images were obtained using an oil-immersion objective with a magnification of 100 × 1.4 CFI Plan Apo Oil.
(§4) Each experiment was repeated at least three times. The images acquired were adjusted using ImageJ2 software. Correlation coefficients were determined on entire images using JaCOP plugin.1 […]
(§5) MCF-7 cells were seeded in a 8-µwell Ibidi plate at 25’000 cells/well in DMEM (100 µL, 10% FCS) and allowed to adhere overnight. The medium was removed. The cells were washed with PBS (200 µL, 1x) and incubated with the peptide solution at 20 µM, 10 µM, 5 µM, or 2.5 µM in DMEM (200 µL, 1% FCS) for 1 h at 37 °C. The medium was removed, and the cells were washed with PBS (200 µL, 2x).
For imaging of mitochondria, MitoTracker Deep Red was added as described in the manuscript. For imaging of endosomes/lysosomes, Ly s o Tr a c k e r Deep Red was added (200 µL, 20 nM in DMEM, 1% FBS) followed by incubation of the cells at 37 °C for 25 min. The medium was removed, and the cells were washed with PBS (200 µL, 2x). For imaging of the nucleus, Hoechst333342 was added at (200 µL, 2 µM in DMEM, 1% FBS) followed by incubation of the cells at 37 °C for 5 min. The cells were washed with PBS (200 µL, 2x), and FluoroBrite medium (200 µL) was added. The live cells were monitored on the confocal microscope […]
MCF-7 cells were seeded in a 96-well plate at 7’500 cells/well in cell culture medium (200 µL, 10% FCS), and allowed to adhere overnight. The medium was removed, the cells were washed with PBS (100 µL, 1x) and incubated with the peptide solution at 20 µM, 10 µM, 5 µM, or 2.5 µM in DMEM (200 µL, 1% FCS) for 1 h at 37 °C. The medium was removed, and the cells were washed with PBS (100 µL, 1x). The MTT solution in DMEM (110 µL, 1.2 mM, 1% FBS) was added. The cells were incubated for 3 h at 37 °C. The […]

[2] = system: MCF-7 cells; assay: Colocalization of peptide with MitoTracker (Manders' coefficients from confocal images); format: cell-based; settings: MCF-7, after 24 h rest versus after 1 h incubation, Figure S7B; 10 µM for (ChaZZ)3, otherwise concentration not stated
Protocol: as §1, §2, §3, §4, §5
For imaging of mitochondria, MitoTracker Deep Red was added as described in the manuscript. […]
PBS (200 µL, 2x). For imaging of the nucleus, Hoechst333342 was added at (200 µL, 2 µM in DMEM, 1% FBS) followed by incubation of the cells at 37 °C for 5 min. The cells were washed with PBS (200 µL, 2x), and FluoroBrite medium (200 µL) was added. The live cells were monitored on the confocal microscope […]
MCF-7 cells were seeded in a 96-well plate at 7’500 cells/well in cell culture medium (200 µL, 10% FCS), and allowed to adhere overnight. The medium was removed, the cells were washed with PBS (100 µL, 1x) and incubated with the peptide solution at 20 µM, 10 µM, 5 µM, or 2.5 µM in DMEM (200 µL, 1% FCS) for 1 h at 37 °C. The medium was removed, and the cells were washed with PBS (100 µL, 1x). The MTT solution in DMEM (110 µL, 1.2 mM, 1% FBS) was added. The cells were incubated for 3 h at 37 °C. The supernatant was carefully removed, and DMSO (100 µL) was added. The plate was gently shaken for 30 min and the absorption of formazan solution at 570 nm was measured on the plate reader. […]

[3] = concentration not stated at the place or given within the value

Compound | Cellular uptake and intracellular localization (confocal microscopy) ([1]; 20 μM peptide) | Cellular uptake and intracellular localization (confocal microscopy) [1, 3] | Intracellular localization after 24 h rest (confocal microscopy, Figure S7) [1] | Fold change of MitoTracker overlap with the peptide (M2) after 24 h rest [2] | Fold change of peptide overlap with MitoTracker (M1) after 24 h rest [2] | Cellular uptake and intracellular localization (confocal microscopy) ([1]; 5 μM peptide) | Cellular uptake and intracellular localization (confocal microscopy) ([1]; 10 μM peptide, MitoTracker Deep Red and Hoechst 33342 counterstain)
CF-Ahx-(ChaZZ)2-Cha-NH2 | strong mitochondrial colocalization at 20 μM (Figure D) with limited endosomal entrapment | localized in mitochondria and the cytoplasm | localized in the cytoplasm as punctuated fluorescence and remains slightly in the mitochondria | 0.4 fold | 1.3 fold |  | 
CF-Ahx-(ChaZZ)3-NH2 |  | localized in the cytoplasm, the nucleoli, and the mitochondria at concentrations of 10 μM and higher | localized predominantly in the mitochondria |  | > 2 fold | low uptake; also recorded: no fluorescence was visible; also recorded: minimal fluorescence | localizes in the mitochondria; also recorded: localized in the mitochondria as well as in the cytoplasm and the nucleoli
N=C(N)N[C@H]1C[C@@H](C(=O)N2C[C@@H](NC(=N)N)C[C@H]2C(=O)N[C@@H](CC2CCCCC2)C(=O)N2C[C@@H](NC(=N)N)C[C@H]2C(=O)N2C[C@@H](NC(=N)N)C[C@H]2C(=O)N[C@@H](CC2CCCCC2)C(=O)N2C[C@@H](NC(=N)N)C[C@H]2C(=O)N2C[C@@H](NC(=N)N)C[C@H]2C(=O)N[C@@H](CC2CCCCC2)C(N)=O)N(C(=O)[C@H](CC2CCCCC2)NC(=O)CCCCCNC(=O)c2ccc3c(c2)C(=O)OC32c3ccc(O)cc3Oc3cc(O)ccc32)C1 [(ChaZZ)3-Cha, CF-Ahx-(ChaZZ)3-Cha-NH2] ({5FAM-Ahx}-[Cha][Pro(cis-4-guanidino)][Pro(cis-4-guanidino)][Cha][Pro(cis-4-guanidino)][Pro(cis-4-guanidino)][Cha][Pro(cis-4-guanidino)][Pro(cis-4-guanidino)][Cha]-NH2) |  | localized in mitochondria, endosomes, and the plasma membrane; also recorded: localized in the mitochondria and not the nucleus but was also trapped in endosomes | localized predominantly in the mitochondria | up to 3.6 fold | more than 1.5 fold | intracellular localization | 
